Tests used:
Plasmin = Plasmin (Homo sapiens, UniProt P00747); experiment: Anti-plasmin activity (inhibition of TAME hydrolysis); format: biochemical; settings: read-out: ID50, plasmin
Experimental: (§1) The anti-trypsin, anti-plasmin, anti-kallikrein and anti-thrombin activities were determined according to the method of Muramatsu et al. [M. Muramatsu, T. Onishi, S. Makino, Y. Hayashi and S. Fujii, J. of Biochem., 58, 214 (1965)]. The data summarized in Table 1 are expressed in terms of molar concentration (ID50) of the test compound which inhibits 50% of the activity of each enzyme to hydrolyze TAME (tosylarginine methyl ester). The compound No. corresponds to the compound number shown in Examples.

Clr = target: T1, Clr (Homo sapiens, UniProt P00736); experiment: Anti-Cl esterase activity, Clr (AAME hydrolysis); format: biochemical; settings: hydrolysis of AAME; read-out: Anti-Cl activity, Clr (ID50)
T1 sequence (P00736 464-705 limits assumed): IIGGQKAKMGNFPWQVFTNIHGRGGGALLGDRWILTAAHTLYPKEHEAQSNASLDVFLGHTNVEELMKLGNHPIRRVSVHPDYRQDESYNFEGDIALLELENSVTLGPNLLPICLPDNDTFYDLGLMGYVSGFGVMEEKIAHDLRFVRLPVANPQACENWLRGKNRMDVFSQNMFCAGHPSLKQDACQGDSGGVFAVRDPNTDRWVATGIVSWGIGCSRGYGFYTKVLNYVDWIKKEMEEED
T1 sequence (P00736 18-463 limits assumed): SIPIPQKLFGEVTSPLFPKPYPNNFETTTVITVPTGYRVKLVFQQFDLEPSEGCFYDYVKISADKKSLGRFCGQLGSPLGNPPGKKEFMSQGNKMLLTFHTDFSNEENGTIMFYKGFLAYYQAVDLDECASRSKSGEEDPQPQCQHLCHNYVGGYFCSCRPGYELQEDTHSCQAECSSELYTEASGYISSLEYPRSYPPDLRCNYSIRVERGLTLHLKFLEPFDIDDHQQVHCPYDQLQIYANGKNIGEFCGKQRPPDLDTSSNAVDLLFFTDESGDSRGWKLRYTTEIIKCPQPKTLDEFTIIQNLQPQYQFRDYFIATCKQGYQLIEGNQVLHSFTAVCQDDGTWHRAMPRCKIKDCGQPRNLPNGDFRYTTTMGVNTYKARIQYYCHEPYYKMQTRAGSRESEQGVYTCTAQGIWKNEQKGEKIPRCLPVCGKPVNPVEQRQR
Experimental: The anti-Cl esterase ([…]) activity was determined according to the method of Okamura et al. [K. Okamura, M. Muramatsu and B. Fujii, Biochem. Biophys.

complement = experiment: Inhibition of complement mediated hemolysis; format: cell-based
Experimental: The complement mediated hemolysis is widely used as a means to determine the titration of complement. The principle of this method is based on the fact that hemolysis if caused by the activation of complement, when the latter is added to a complex (immune complex) of erythrocytes and the antibody thereof. The degree of hemolysis varies in proportion to the amount of complement added. Therefore, when a known amount of complement admixed with a Cl esterase inhibitor is used, the hemolysis must be suppressed in proportion to the inhibitory activity.
The anti-Cl esterase (Clr, Cls) activity was determined according to the method of Okamura et al. [K. Okamura, M. Muramatsu and B. Fujii, Biochem. Biophys. […] The figures in Table 2 have the following meanings: […]

Kallikrein = experiment: Anti-kallikrein activity (inhibition of TAME hydrolysis); format: biochemical; settings: read-out: ID50, kallikrein
Experimental: as §1

Trypsin = target: T2, Trypsin (Bos taurus, UniProt P00760); experiment: Anti-trypsin activity (inhibition of TAME hydrolysis); format: biochemical; settings: read-out: ID50, trypsin
T2 sequence (P00760 24-246): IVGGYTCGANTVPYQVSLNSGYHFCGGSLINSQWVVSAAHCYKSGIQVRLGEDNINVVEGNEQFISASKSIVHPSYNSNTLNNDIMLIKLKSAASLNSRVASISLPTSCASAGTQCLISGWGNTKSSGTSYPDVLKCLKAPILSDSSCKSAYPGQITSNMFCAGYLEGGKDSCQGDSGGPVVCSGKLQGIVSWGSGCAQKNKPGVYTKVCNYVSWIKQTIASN
Experimental: as §1

Cls = target: T3, Cls (Homo sapiens, UniProt P09871); experiment: Anti-Cl esterase activity, Cls (ATEE hydrolysis); format: biochemical; settings: hydrolysis of ATEE; read-out: Anti-Cl activity, Cls (50% inhibition)
T3 sequence (P09871 438-688 limits assumed): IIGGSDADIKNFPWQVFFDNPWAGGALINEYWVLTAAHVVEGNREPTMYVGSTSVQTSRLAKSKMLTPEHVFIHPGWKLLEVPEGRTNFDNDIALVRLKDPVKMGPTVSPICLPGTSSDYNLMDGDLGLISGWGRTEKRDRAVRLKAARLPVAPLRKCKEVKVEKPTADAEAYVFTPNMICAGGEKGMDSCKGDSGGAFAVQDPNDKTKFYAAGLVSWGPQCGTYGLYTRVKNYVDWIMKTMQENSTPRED
T3 sequence (P09871 16-437 limits assumed): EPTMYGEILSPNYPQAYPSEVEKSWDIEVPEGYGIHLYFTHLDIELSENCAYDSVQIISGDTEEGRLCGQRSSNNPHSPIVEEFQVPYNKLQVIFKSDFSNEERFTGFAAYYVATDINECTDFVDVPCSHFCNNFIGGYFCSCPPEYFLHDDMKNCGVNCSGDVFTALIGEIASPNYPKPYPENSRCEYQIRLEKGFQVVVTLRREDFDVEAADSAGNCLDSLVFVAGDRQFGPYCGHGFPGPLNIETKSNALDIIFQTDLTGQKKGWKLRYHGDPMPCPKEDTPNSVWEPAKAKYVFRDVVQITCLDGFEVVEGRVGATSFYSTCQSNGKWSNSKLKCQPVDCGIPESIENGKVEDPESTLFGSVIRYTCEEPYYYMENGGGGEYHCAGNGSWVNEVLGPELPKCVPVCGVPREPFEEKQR
Experimental: The anti-Cl esterase (Clr, Cls) activity was determined according to the method of Okamura et al. [K. Okamura, M. Muramatsu and B. Fujii, Biochem. Biophys. […] The figures in Table 2 have the following meanings:
Cls: Molar concentration of the test compound which inhibits 50% of the ability of Cls to hydrolyse ATEE (acetyltyrosin ethyl ester).

Sequence of Plasmin (P00747 581-810 limits assumed, species assumed): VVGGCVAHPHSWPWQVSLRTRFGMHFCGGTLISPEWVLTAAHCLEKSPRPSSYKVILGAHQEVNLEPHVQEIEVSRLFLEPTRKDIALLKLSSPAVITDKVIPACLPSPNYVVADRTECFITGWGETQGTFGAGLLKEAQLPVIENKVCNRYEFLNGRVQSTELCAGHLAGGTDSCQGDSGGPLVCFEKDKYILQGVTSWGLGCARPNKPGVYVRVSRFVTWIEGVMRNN
Sequence of Plasmin (P00747 97-580 limits assumed, species assumed): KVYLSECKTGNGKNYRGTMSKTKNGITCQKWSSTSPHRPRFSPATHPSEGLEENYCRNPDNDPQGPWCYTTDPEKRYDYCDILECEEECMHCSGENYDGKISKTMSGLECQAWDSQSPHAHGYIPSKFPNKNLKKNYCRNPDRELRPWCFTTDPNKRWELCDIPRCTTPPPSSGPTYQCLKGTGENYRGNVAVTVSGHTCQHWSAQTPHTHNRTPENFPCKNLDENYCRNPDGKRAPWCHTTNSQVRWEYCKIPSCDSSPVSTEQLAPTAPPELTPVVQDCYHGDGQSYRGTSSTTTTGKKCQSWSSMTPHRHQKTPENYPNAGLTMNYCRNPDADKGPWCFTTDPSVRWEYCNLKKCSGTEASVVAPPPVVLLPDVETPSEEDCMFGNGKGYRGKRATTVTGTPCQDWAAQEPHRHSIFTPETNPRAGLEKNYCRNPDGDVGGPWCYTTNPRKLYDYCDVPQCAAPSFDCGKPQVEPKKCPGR

N=C(N)c1ccc(OC(=O)C2CC2)c(C(=O)c2ccccc2)c1 [Compound 8]
IC50 (Plasmin): 2 µM
IC50 (Clr): > 10 µM
Inhibition of complement mediated hemolysis (%) (complement; compound at 1 × 10^-5): 90.5%
Inhibition of complement mediated hemolysis (%) (complement; compound at 1 × 10^-6): 22.0%
Inhibition of complement mediated hemolysis (%) (complement; compound at 1 × 10^-7): 0%
IC50 (Kallikrein): 3 µM
IC50 (Trypsin): 2 µM

COC(=O)c1cc(C(=N)N)ccc1OC(=O)c1ccccc1 [Compound 25, 4-amidino-2-methoxycarbonylphenyl benzoate]
IC50 (Plasmin): 0.6 µM
IC50 (Cls): 0.2 µM
IC50 (Clr): 4 µM
Inhibition of complement mediated hemolysis (%) (complement; compound at 1 × 10^-4): 100.0%
Inhibition of complement mediated hemolysis (%) (complement; compound at 1 × 10^-5): 93.1%
Inhibition of complement mediated hemolysis (%) (complement; compound at 1 × 10^-6): 38.6%
Inhibition of complement mediated hemolysis (%) (complement; compound at 1 × 10^-7): 11.6%
IC50 (Kallikrein): > 10 µM
IC50 (Trypsin): 0.3 µM

COC(=O)c1cc(C(=N)N)ccc1OC(=O)c1ccc(NC(=N)N)cc1 [Compound 72]
IC50 (Cls): 0.2 µM
IC50 (Clr): 1 µM
Inhibition of complement mediated hemolysis (%) (complement; compound at 1 × 10^-4): 100%
Inhibition of complement mediated hemolysis (%) (complement; compound at 1 × 10^-5): 87.8%
Inhibition of complement mediated hemolysis (%) (complement; compound at 1 × 10^-6): 10.8%
Inhibition of complement mediated hemolysis (%) (complement; compound at 1 × 10^-7): 0%

CCC(=Cc1ccc(NC(=N)N)cc1)C(=O)Oc1ccc(C(=N)N)cc1C(=O)c1ccccc1 [Compound 74]
IC50 (Cls): 3 µM
IC50 (Clr): > 10 µM
Inhibition of complement mediated hemolysis (%) (complement; compound at 1 × 10^-4): 55.4%
Inhibition of complement mediated hemolysis (%) (complement; compound at 1 × 10^-5): 5.7%
Inhibition of complement mediated hemolysis (%) (complement; compound at 1 × 10^-6): 3.6%
Inhibition of complement mediated hemolysis (%) (complement; compound at 1 × 10^-7): 0%

COc1cc(C(=N)N)ccc1OC(=O)c1ccc(NC(=N)N)c(C)c1 [Compound 75]
IC50 (Cls): 3 µM
IC50 (Clr): 8 µM
Inhibition of complement mediated hemolysis (%) (complement; compound at 1 × 10^-4): 45.2%
Inhibition of complement mediated hemolysis (%) (complement; compound at 1 × 10^-5): 3.2%
Inhibition of complement mediated hemolysis (%) (complement; compound at 1 × 10^-6): 0%
Inhibition of complement mediated hemolysis (%) (complement; compound at 1 × 10^-7): 0%

COc1cc(C(=N)N)ccc1OC(=O)c1ccc(NC(=N)N)cc1Cl [Compound 76]
IC50 (Cls): > 10 µM
IC50 (Clr): > 10 µM
Inhibition of complement mediated hemolysis (%) (complement; compound at 1 × 10^-4): 34.8%
Inhibition of complement mediated hemolysis (%) (complement; compound at 1 × 10^-5): 4.8%
Inhibition of complement mediated hemolysis (%) (complement; compound at 1 × 10^-6): 0%
Inhibition of complement mediated hemolysis (%) (complement; compound at 1 × 10^-7): 0%

N=C(N)Nc1ccc(C(=O)Oc2ccc(C(=N)N)cc2C(=O)c2ccccc2)c(Cl)c1 [Compound 77]
IC50 (Cls): 0.8 µM
IC50 (Clr): > 10 µM
Inhibition of complement mediated hemolysis (%) (complement; compound at 1 × 10^-4): 97.3%
Inhibition of complement mediated hemolysis (%) (complement; compound at 1 × 10^-5): 48.9%
Inhibition of complement mediated hemolysis (%) (complement; compound at 1 × 10^-6): 1.8%
Inhibition of complement mediated hemolysis (%) (complement; compound at 1 × 10^-7): 0%

COc1cc(C(=N)N)ccc1OC(=O)c1ccc([N+](=O)[O-])c(C)c1 [Compound 80]
IC50 (Cls): > 10 µM
IC50 (Clr): > 10 µM
Inhibition of complement mediated hemolysis (%) (complement; compound at 1 × 10^-4): 66.5%
Inhibition of complement mediated hemolysis (%) (complement; compound at 1 × 10^-5): 6.9%
Inhibition of complement mediated hemolysis (%) (complement; compound at 1 × 10^-6): 0%
Inhibition of complement mediated hemolysis (%) (complement; compound at 1 × 10^-7): 0%

Cc1cc(C(=O)Oc2ccc(C(=N)N)cc2C(=O)c2ccccc2)ccc1[N+](=O)[O-] [Compound 81]
IC50 (Cls): > 10 µM
IC50 (Clr): > 10 µM
Inhibition of complement mediated hemolysis (%) (complement; compound at 1 × 10^-4): 98.2%
Inhibition of complement mediated hemolysis (%) (complement; compound at 1 × 10^-5): 71.6%
Inhibition of complement mediated hemolysis (%) (complement; compound at 1 × 10^-6): 4.2%
Inhibition of complement mediated hemolysis (%) (complement; compound at 1 × 10^-7): 0%

COc1cc(C(=N)N)ccc1OC(=O)CCCc1ccc([N+](=O)[O-])cc1 [Compound 82]
IC50 (Cls): > 10 µM
IC50 (Clr): > 10 µM
Inhibition of complement mediated hemolysis (%) (complement; compound at 1 × 10^-4): 29.8%
Inhibition of complement mediated hemolysis (%) (complement; compound at 1 × 10^-5): 0%
Inhibition of complement mediated hemolysis (%) (complement; compound at 1 × 10^-6): 0%
Inhibition of complement mediated hemolysis (%) (complement; compound at 1 × 10^-7): 0%

N#Cc1ccc(C(=O)Oc2ccc(C(=N)N)cc2C(=O)c2ccccc2)cc1 [Compound 83]
IC50 (Cls): 4 µM
IC50 (Clr): 9 µM
Inhibition of complement mediated hemolysis (%) (complement; compound at 1 × 10^-4): 100%
Inhibition of complement mediated hemolysis (%) (complement; compound at 1 × 10^-5): 90.2%
Inhibition of complement mediated hemolysis (%) (complement; compound at 1 × 10^-6): 12.9%

COC(=O)c1cc(C(=N)N)ccc1OC(=O)c1ccc(F)cc1 [Compound 84]
IC50 (Cls): 0.4 µM
IC50 (Clr): > 10 µM
Inhibition of complement mediated hemolysis (%) (complement; compound at 1 × 10^-4): 98.6%
Inhibition of complement mediated hemolysis (%) (complement; compound at 1 × 10^-5): 67.7%
Inhibition of complement mediated hemolysis (%) (complement; compound at 1 × 10^-6): 2.0%
Inhibition of complement mediated hemolysis (%) (complement; compound at 1 × 10^-7): 0%

N=C(N)c1ccc(OC(=O)c2ccc(F)cc2)c([N+](=O)[O-])c1 [Compound 85]
IC50 (Cls): 0.5 µM
IC50 (Clr): 0.6 µM
Inhibition of complement mediated hemolysis (%) (complement; compound at 1 × 10^-4): 98.6%
Inhibition of complement mediated hemolysis (%) (complement; compound at 1 × 10^-5): 97.9%
Inhibition of complement mediated hemolysis (%) (complement; compound at 1 × 10^-6): 67.1%
Inhibition of complement mediated hemolysis (%) (complement; compound at 1 × 10^-7): 7.0%

Cc1cccc(Nc2ccccc2C(=O)Oc2ccc(C(=N)N)cc2C(=O)c2ccccc2)c1C [Compound 87]
IC50 (Cls): 5 µM
IC50 (Clr): > 10 µM
Inhibition of complement mediated hemolysis (%) (complement; compound at 1 × 10^-4): 0%
Inhibition of complement mediated hemolysis (%) (complement; compound at 1 × 10^-5): 0%
Inhibition of complement mediated hemolysis (%) (complement; compound at 1 × 10^-6): 0%
Inhibition of complement mediated hemolysis (%) (complement; compound at 1 × 10^-7): 0%
